Results from US20260317356A1, “SMALL MOLECULE MODULATORS OF OGG1” (AZKARRA THERAPEUTICS, INC., priority 2023, published 2026).

The compounds below were run against hOGG1 (Homo sapiens, UniProt O15527) (assay: Surface Plasma Resonance with hOGG1 to measure compound affinity (OGG1 SPR Kd)). Conditions: Biacore T-200, immobilized his-tagged OGG1; pH 7.4; 2% DMSO; single-cycle kinetics.
Sequence of hOGG1 (O15527 12-323): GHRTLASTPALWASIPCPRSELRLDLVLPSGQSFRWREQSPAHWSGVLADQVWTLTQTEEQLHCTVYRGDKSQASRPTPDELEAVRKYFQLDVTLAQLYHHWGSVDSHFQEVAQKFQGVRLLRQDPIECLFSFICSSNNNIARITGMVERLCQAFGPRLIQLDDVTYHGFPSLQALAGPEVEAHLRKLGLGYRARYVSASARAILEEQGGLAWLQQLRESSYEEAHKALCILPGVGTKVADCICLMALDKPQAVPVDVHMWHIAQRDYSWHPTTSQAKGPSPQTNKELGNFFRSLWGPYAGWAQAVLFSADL
Format: binding
Parameters: Protein His-hOGG1 (12-323) was prepared
Method: Surface Plasma Resonance with hOGG1 to Measure Compound Affinity (OGG1 SPR Kd); All the SPR studies were performed on a Biacore T-200 instrument (Cytiva life sciences) using series S NTA sensor chip (cat #BR-1005-32, Cytiva life sciences). Recombinant his-tagged OGG1 (mol. wt. 36003; ChemPartner, Shanghai, China) was immobilized on NTA sensor chip via Ni^2+/NTA chelation using NTA reagent kit (Cytiva life sciences; cat #289950) as per manufacturer's recommended protocol. The running buffer during immobilization contained HEPES (20 mM, pH 7.4), 150 mM NaCl, 0.5 mM TCEP (tris(2-carboxyethyl)phosphine), and 0.005% Tween-20. NTA sensor chip (experimental cell) was first conditioned by injecting regeneration solution (350 mM EDTA, flow rate 30 μL/min, 2 injections 60 each). Additional wash with 50 mM NaOH was used whenever the chip was regenerated (flow rate 30 μL/min, 1 injection of 60 s). The sensor chip was then activated with 0.5 mM NiCl2 (flow rate 10 μL/min, 2 injection of 60 s, leading to a baseline increase of ~40 RU), and the excess Ni^2+ was removed using immobilization buffer containing 3 mM EDTA (flow rate 10 μL/min, 1 injection of 60 s). Finally, OGG1 (diluted to 6.2 μg/mL in running buffer) was injected on the activated sensor chip at a flow rate of 10 μL/min until immobilization level reached ~6000 RU. Any loosely bound protein was removed by passing the immobilization buffer overnight at 20 μL/min. At this point, the drift in baseline was ~0.01 RU/s and the final immobilization level was ~2500 RU. Reference cell was left untreated. SPR binding experiments were performed using binding buffer (20 mM HEPES (pH 7.4), 150 mM NaCl, 0.5 mM TCEP, 0.005% Tween-20, and 2% DMSO) at a flow rate of 30 μL/min. Single-cycle kinetics approach was used for binding analysis which consisted of sequential injections of increasing concentrations of test compound (a 3-fold serial dilution with 5 concentrations; highest 750 or 1500 nM; with final DMSO concentration at 2%) over the immobilized protein without regeneration step between each sample injection. Each injection was 45 seconds long (contact time), followed by a final dissociation of 600 sec. The Biacore T-200 Evaluation software 3.1 (GE Healthcare) was used to determine kinetic parameters from SPR data. All the reported sensograms were reference subtracted and corrected for refractive index contributions from solvent using 8-point solvent correction (1.4 to 2.8% DMSO in binding buffer). Data were fit to both steady state and 1:1 kinetic model to obtain Kon, Koff and binding affinity (Kd).
For `COc1cc(NC(=O)[C@H]2CC[C@@H](N3Cc4ccccc4NC3=O)CC2)ccc1C` [Example 67, (1s,4s)-N-(3-methoxy-4-methylphenyl)-4-(2-oxo-1,2-dihydroquinazolin-3(4H)-yl)cyclohexanecarboxamide], the Kd was 10 to 100 nM. `COc1ccc(NC(=O)[C@H]2CC[C@@H](N3Cc4c(C)cccc4C3=O)CC2)cc1C#N` [Example 239, (1s,4s)-N-(3-Cyano-4-methoxyphenyl)-4-(4-methyl-1-oxoisoindolin-2-yl)cyclohexanecarboxamide] gave a Kd of 10 to 100 nM. Compound `COc1ccc(NC(=O)[C@H]2CC[C@@H](N3Cc4c(C)ccc(OC)c4NC3=O)CC2)cc1Cl` [Example 3, (1s,4s)-N-(3-Chloro-4-methoxyphenyl)-4-(8-methoxy-5-methyl-2-oxo-1,2-dihydroquinazolin-3(4H)-yl)cyclohexanecarboxamide] has a Kd of 10 to 100 nM. For `COc1cc(NC(=O)[C@H]2CC[C@@H](N3Cc4c(C)ccc(N5CC6(COC6)C5)c4NC3=O)CC2)ccc1C` [Example 35, (1s,4s)-N-(3-Methoxy-4-methylphenyl)-4-(5-methyl-2-oxo-8-(2-oxa-6-azaspiro[3.3]heptan-6-yl)-1,2-dihydroquinazolin-3(4H)-yl)cyclohexanecarboxamide], the Kd was 10 to 100 nM. Compound `COc1ccc(NC(=O)[C@H]2CC[C@@H](N3Cc4c(C)cccc4C3=O)CC2)cc1C` [Example 227, (1s,4s)-N-(4-Methoxy-3-methylphenyl)-4-(4-methyl-1-oxoisoindolin-2-yl)cyclohexanecarboxamide] has a Kd of 10 to 100 nM. Compound `COc1cc(NC(=O)[C@H]2CC[C@@H](N3Cc4c(C)cc(N5CC6(COC6)C5)cc4NC3=O)CC2)ccc1C` [Example 30, (1s,4s)-N-(3-Methoxy-4-methylphenyl)-4-(5-methyl-2-oxo-7-(2-oxa-6-azaspiro[3.3]heptan-6-yl)-1,2-dihydroquinazolin-3(4H)-yl)cyclohexanecarboxamide] has a Kd of 100 to 1000 nM. For `COc1ccc(NC(=O)[C@H]2CC[C@@H](N3Cc4c(C)ccnc4NC3=O)CC2)cc1Cl` [Example 14, (1s,4s)-N-(3-Chloro-4-methoxyphenyl)-4-(5-methyl-2-oxo-1,2-dihydropyrido[2,3-d]pyrimidin-3(4H)-yl)cyclohexanecarboxamide], the Kd was 10 to 100 nM. In the case of `COc1ccc(NC(=O)[C@]2(C)CC[C@H](N3Cc4c(C)ccc(OC)c4NC3=O)CC2)cc1Cl` (single isomer, unassigned) [Example 7, (1s,4s)-N-(3-chloro-4-methoxyphenyl)-4-(8-methoxy-5-methyl-2-oxo-1,2-dihydroquinazolin-3(4H)-yl)-1-methylcyclohexanecarboxamide], the Kd is reported as 10 to 100 nM. `COc1cc(NC(=O)[C@H]2CC[C@@H](N3Cc4c(C)ccnc4NC3=O)CC2)ccc1C` [Example 41, (1s,4s)-N-(3-Methoxy-4-methylphenyl)-4-(5-methyl-2-oxo-1,2-dihydropyrido[2,3-d]pyrimidin-3(4H)-yl)cyclohexanecarboxamide] showed a Kd of 10 to 100 nM. Compound `COc1ccc(NC(=O)[C@H]2CC[C@@H](N3Cc4c(C)ccc(OC)c4NC3=O)CC2)cc1C#N` [Example 2, (1s,4s)-N-(3-Cyano-4-methoxyphenyl)-4-(8-methoxy-5-methyl-2-oxo-1,2-dihydroquinazolin-3(4H)-yl)cyclohexanecarboxamide] has a Kd of 10 to 100 nM. Compound `COc1cc(NC(=O)[C@H]2CC[C@@H](N3Cc4c(C)ccc(P(C)(C)=O)c4NC3=O)CC2)ccc1C` [Example 5, (1s,4s)-4-(8-(Dimethylphosphoryl)-5-methyl-2-oxo-1,2-dihydroquinazolin-3(4H)-yl)-N-(3-methoxy-4-methylphenyl)cyclohexanecarboxamide] has a Kd of no more than 10 nM. `COc1cc(NC(=O)[C@H]2CC[C@@H](N3Cc4c(C)cnc(CNC(C)=O)c4NC3=O)CC2)ccc1C` [Example 19, (1s,4s)-4-(8-(Acetamidomethyl)-5-methyl-2-oxo-1,2-dihydropyrido[3,4-d]pyrimidin-3(4H)-yl)-N-(3-methoxy-4-methylphenyl)cyclohexanecarboxamide] was tested, and the Kd was no more than 10 nM. With `COc1cc(NC(=O)[C@H]2CC[C@@H](N3Cc4c(C)cc(-c5nnco5)cc4NC3=O)CC2)ccc1C` [Example 92, (1s,4s)-N-(3-methoxy-4-methylphenyl)-4-(5-methyl-7-(1,3,4-oxadiazol-2-yl)-2-oxo-1,2-dihydroquinazolin-3(4H)-yl)cyclohexanecarboxamide] the Kd was 10 to 100 nM. `COc1ccc(NC(=O)[C@H]2CC[C@@H](N3Cc4c(C)cc(NCCN(C)C)cc4NC3=O)CC2)cc1C#N` [Example 99, (1s,4s)-N-(3-cyano-4-methoxyphenyl)-4-(7-(2-(dimethylamino)ethylamino)-5-methyl-2-oxo-1,2-dihydroquinazolin-3(4H)-yl)cyclohexanecarboxamide] showed a Kd of 10 to 100 nM. `COc1cc(NC(=O)[C@H]2CC[C@@H](N3Cc4c(C)cc(CN)cc4NC3=O)CC2)ccc1C` [Example 28, (1s,4s)-4-(7-(Aminomethyl)-5-methyl-2-oxo-1,2-dihydroquinazolin-3(4H)-yl)-N-(3-methoxy-4-methylphenyl)cyclohexanecarboxamide] gave a Kd of no more than 10 nM. `COc1cc(NC(=O)[C@]2(C)CC[C@H](N3Cc4c(C)ccc(OC)c4NC3=O)CC2)ccc1C` [Example 13, (1s,4s)-N-(3-Methoxy-4-methylphenyl)-4-(8-methoxy-5-methyl-2-oxo-1,2-dihydroquinazolin-3(4H)-yl)-1-methylcyclohexanecarboxamide] gave a Kd of 10 to 100 nM. `COc1ccc(NC(=O)[C@H]2CC[C@@H](N3Cc4c(C)ccnc4NC3=O)CC2)cc1C` [Example 16, (1s,4s)-N-(4-Methoxy-3-methylphenyl)-4-(5-methyl-2-oxo-1,2-dihydropyrido[2,3-d]pyrimidin-3(4H)-yl)cyclohexanecarboxamide] showed a Kd of no more than 10 nM. Work on `COc1cc(NC(=O)[C@]2(C)CC[C@H](N3Cc4c(C)cccc4C3=O)CC2)ccc1C` [Example 277, (1s,4s)-N-(3-methoxy-4-methylphenyl)-1-methyl-4-(4-methyl-1-oxoisoindolin-2-yl)cyclohexane-1-carboxamide] yielded a Kd of 10 to 100 nM. With `COc1cc(NC(=O)[C@H]2CC[C@@H](N3Cc4c(C)ccc(CN)c4NC3=O)CC2)ccc1C` [Example 58, (1s,4s)-4-(8-(aminomethyl)-5-methyl-2-oxo-1,2-dihydroquinazolin-3(4H)-yl)-N-(3-methoxy-4-methylphenyl)cyclohexanecarboxamide] the Kd was 10 to 100 nM. Compound `COc1ccc(NC(=O)[C@H]2CC[C@@H](N3Cc4c(C)ccnc4NC3=O)CC2)cc1` [Example 15, (1s,4s)-N-(4-methoxyphenyl)-4-(5-methyl-2-oxo-1,2-dihydropyrido[2,3-d]pyrimidin-3(4H)-yl)cyclohexanecarboxamide] has a Kd of 10 to 100 nM. `COc1ccc(NC(=O)[C@H]2CC[C@@H](N3Cc4c(C)ccc(OC)c4NC3=O)CC2)cc1C` [Example 4, (1s,4s)-N-(3-Methyl-4-methoxyphenyl)-4-(8-methoxy-5-methyl-2-oxo-1,2-dihydroquinazolin-3(4H)-yl)cyclohexanecarboxamide] was tested, and the Kd was 10 to 100 nM. `COc1ccc(NC(=O)[C@H]2CC[C@@H](N3Cc4c(C)cc(NCCN(C)C)cc4C3=O)CC2)cc1Cl` [Example 260, (1s,4s)-N-(3-Chloro-4-methoxyphenyl)-4-(6-(2-(dimethylamino)ethylamino)-4-methyl-1-oxoisoindolin-2-yl)cyclohexanecarboxamide] was tested, and the Kd was 10 to 100 nM. Work on `COc1cc(NC(=O)[C@H]2CC[C@@H](N3Cc4c(C)ccc(C#N)c4C3=O)CC2)ccc1C` [Example 143, (1s,4s)-4-(7-Cyano-4-methyl-1-oxoisoindolin-2-yl)-N-(3-methoxy-4-methylphenyl)cyclohexanecarboxamide] yielded a Kd of 10 to 100 nM. Work on `COc1ccc(NC(=O)[C@]2(C)CC[C@H](N3Cc4c(C)ccc(OC)c4NC3=O)CC2)cc1C#N` (single isomer, unassigned) [Example 9, (1s,4s)-N-(3-cyano-4-methoxyphenyl)-4-(8-methoxy-5-methyl-2-oxo-1,2-dihydroquinazolin-3(4H)-yl)-1-methylcyclohexanecarboxamide] yielded a Kd of no more than 10 nM. For `COc1cc(NC(=O)[C@H]2CC[C@@H](N3Cc4c(C)ccc(OC)c4NC3=O)CC2)ccc1C` [Example 47, (1s,4s)-N-(3-Methoxy-4-methylphenyl)-4-(8-methoxy-5-methyl-2-oxo-1,2-dihydroquinazolin-3(4H)-yl)cyclohexanecarboxamide], the Kd was 10 to 100 nM.
